According to ChEMBL document CHEMBL1201862, “PubChem BioAssay data set” (2004):
The source made the active and inactive calls.

Legend:
[1] = cytotoxicity in HeLa cells, dose response, cytotoxicity control, cell-based, 24 h, dry powder, set 2 (AID 651774); format: functional
[2] = target: Disintegrin and metalloproteinase domain-containing protein 17 (Homo sapiens, UniProt P78536); assay: ADAM17 protease inhibitors, dose response, counter-screen for ADAM10 exosite inhibitor project, biochemical, quenched FRET substrate (AID 743253)
[3] = ADAM10 inhibitors, peptide cleavage, dose response, biochemical, QFRET (AID 743254);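 note: ADAM10 enzyme with the DM2 quenched FRET peptide as substrate; EDANS fluorescence gain as the protease cuts the substrate; inhibitor potency against ADAM10 proteolytic activity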
[4] = growth suppression of PTEN-null colon cells, dose response, cell-based, HCT116 PTEN knockout (AID 1047); format: functional;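 note: HCT116 colon tumor cells with PTEN knocked out; cells exposed to compound for 60 hours before readout; potency for loss of cell viability measured by luminescence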
[5] = target: Cytochrome P450 2C9 (Homo sapiens, UniProt P11712)
[6] = Luminescence Cell-Based Dose Retest to Confirm Inhibitors of Cancer Stem Cells. [Related pubchem assays (depositor defined):AID2717, AID2721]; format: functional; conditions: Homo sapiens
[7] = growth suppression of beta-catenin-knockout colon cells, dose response, cell-based, HCT116, human colon tumor (AID 1045); format: functional;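 note: HCT116 colon tumor cells with beta catenin knocked out; cells exposed to compound for 60 hours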
[8] = HepG2 cell cytotoxicity, dose response, cytotoxicity control, plate reader, cherry-pick, antagonist series (AID 743416); format: functional, cell-based
[9] = HEK293 cell cytotoxicity, dose response, cytotoxicity control, plate reader, cherry-picked samples (AID 743446); format: functional, cell-based
[10] = A549 cell cytotoxicity, dose response, cytotoxicity control, plate reader, cherry-pick, antagonist series (AID 743412); format: functional, cell-based
[11] = LGR2 antagonists, dose response, cell-based, HEK293, CRE-luciferase reporter, cherry pick, set 2 (AID 743343); format: functional;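 note: transfected cells were stimulated with diluted bursicon conditioned medium after compound addition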
[12] = MC4R antagonists, dose response, counter-screen for LGR2 antagonist project, cell-based, plate reader, cherry pick (AID 743444); format: functional;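 note: transfected HEK 293 cells stimulated with alpha-MSH peptide; potency of inhibitors of the alpha-MSH evoked signal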
[13] = target: Heat shock protein HSP 90-alpha (Homo sapiens, UniProt P07900); format: functional, organism-based
[14] = target: T1, Histone-lysine N-methyltransferase NSD2 (Homo sapiens, UniProt O96028); format: biochemical
T1 sequence (O96028 whole entry): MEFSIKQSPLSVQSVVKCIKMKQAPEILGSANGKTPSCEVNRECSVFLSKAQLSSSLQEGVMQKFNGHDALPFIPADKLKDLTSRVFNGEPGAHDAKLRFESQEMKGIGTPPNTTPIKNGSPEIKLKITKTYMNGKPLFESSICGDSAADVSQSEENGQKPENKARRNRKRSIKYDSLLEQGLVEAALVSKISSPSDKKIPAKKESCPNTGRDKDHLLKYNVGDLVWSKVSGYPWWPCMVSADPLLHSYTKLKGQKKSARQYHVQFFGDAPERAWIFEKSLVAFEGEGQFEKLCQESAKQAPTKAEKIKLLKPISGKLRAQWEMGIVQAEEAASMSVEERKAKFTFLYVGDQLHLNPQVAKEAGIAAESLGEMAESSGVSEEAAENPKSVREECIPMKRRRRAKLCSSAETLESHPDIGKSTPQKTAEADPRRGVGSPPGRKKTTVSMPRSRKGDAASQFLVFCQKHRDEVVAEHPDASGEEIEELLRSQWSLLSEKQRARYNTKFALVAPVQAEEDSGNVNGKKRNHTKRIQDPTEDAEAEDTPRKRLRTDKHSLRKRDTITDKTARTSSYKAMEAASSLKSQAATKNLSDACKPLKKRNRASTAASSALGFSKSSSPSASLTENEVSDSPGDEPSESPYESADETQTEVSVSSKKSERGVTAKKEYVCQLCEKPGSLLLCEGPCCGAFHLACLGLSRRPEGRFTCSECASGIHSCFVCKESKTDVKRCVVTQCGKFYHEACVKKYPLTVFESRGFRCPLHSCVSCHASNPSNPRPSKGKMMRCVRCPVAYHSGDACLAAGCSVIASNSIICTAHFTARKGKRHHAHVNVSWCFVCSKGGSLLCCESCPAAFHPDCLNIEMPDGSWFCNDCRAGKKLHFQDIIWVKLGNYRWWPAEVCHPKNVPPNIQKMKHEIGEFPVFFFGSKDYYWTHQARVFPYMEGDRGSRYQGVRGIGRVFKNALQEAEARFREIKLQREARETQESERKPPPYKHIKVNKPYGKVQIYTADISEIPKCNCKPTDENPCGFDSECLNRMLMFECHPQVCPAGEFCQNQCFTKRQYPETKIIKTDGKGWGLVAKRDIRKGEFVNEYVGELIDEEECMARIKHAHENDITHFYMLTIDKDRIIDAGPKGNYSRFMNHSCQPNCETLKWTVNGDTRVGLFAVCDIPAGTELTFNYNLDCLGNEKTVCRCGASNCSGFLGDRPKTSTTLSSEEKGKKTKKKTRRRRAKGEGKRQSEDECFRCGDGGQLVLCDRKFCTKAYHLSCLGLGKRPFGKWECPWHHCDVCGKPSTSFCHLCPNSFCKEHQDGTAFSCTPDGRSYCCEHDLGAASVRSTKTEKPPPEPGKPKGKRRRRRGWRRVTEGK

[15] = target: Beta Lactamase (Pseudomonas aeruginosa, UniProt Q932Y6); assay: beta-lactamase reporter inhibitor potency, dose response, artefact control for TLR9-MyD88 binding inhibitor project, BLA reporter cells, FRET fluorescence (AID 588341); format: cell-based;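 note: cell based assay in CHO-K1 cells stably expressing beta-lactamase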
[16] = THP-1 cell cytotoxicity, dose response, cytotoxicity control for Vif-APOBEC3G degradation inhibitor project, THP-1 cells (AID 1117359); format: functional; conditions: Human immunodeficiency virus 1, THP-1
[17] = target: T2, Hexokinase HKDC1 (Homo sapiens, UniProt Q2TB90); assay: HKDC1 hexokinase inhibitors, dose response, biochemical, W721R variant (AID 504729); format: functional
T2 sequence (Q2TB90 whole entry): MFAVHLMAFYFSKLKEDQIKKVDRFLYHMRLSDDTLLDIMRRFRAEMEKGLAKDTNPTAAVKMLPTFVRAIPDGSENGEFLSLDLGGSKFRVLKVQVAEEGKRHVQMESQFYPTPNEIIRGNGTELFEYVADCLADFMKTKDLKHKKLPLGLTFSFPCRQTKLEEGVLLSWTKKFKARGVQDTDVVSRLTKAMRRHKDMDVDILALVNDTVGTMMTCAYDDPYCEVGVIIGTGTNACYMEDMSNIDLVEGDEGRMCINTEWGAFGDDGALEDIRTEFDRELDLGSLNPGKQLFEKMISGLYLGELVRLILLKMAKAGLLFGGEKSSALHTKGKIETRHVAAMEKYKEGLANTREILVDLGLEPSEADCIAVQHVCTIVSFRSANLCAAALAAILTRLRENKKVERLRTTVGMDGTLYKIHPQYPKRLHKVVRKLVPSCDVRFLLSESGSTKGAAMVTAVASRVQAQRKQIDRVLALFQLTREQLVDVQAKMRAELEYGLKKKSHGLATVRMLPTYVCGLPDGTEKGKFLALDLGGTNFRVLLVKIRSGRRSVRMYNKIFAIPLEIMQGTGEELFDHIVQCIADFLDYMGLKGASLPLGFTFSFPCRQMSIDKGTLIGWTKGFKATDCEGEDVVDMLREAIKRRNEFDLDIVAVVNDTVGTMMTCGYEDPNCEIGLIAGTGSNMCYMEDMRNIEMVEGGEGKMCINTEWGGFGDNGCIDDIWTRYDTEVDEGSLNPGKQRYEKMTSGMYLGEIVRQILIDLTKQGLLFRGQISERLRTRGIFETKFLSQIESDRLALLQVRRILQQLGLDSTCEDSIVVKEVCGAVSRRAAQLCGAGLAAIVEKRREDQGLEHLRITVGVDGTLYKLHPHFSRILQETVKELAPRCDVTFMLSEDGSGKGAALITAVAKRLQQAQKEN

[18] = target: Genome polyprotein (dengue virus type 2, UniProt P29990); assay: Dengue-2 NS5 methyltransferase inhibitors, primary screen, biochemical, confirmation dose response (AID 588689); format: functional
[19] = tested on: CHO; assay: cytotoxicity in TLR9-MyD88 CHO cells, dose response, cytotoxicity control for TLR9-MyD88 binding inhibitor project, cell-based, luminescence (AID 588339); format: functional, hamster; conditions: Cricetulus griseus;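 note: CHO cells stably coexpressing TLR9 and MyD88 fusions from primary screen; compound exposure lasted 48 hours before viability readout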
[20] = inhibitors of PGC1a acetylation in cells, dose response, cell-based, cherry-picked samples (AID 720514); format: functional;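 note: potency may reflect raised or lowered acetylation signal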
[21] = miR-122 activators in hepatoma reporter cells, dose response, cell-based, Huh7 psiCHECK-miR122, Renilla luciferase, cherry-picked (AID 651956); format: functional;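 note: huh7 hepatoma cells stably carrying a psiCHECK-2 miR-122 sensor plasmid; renilla luciferase signal reporting endogenous miR-122 activity after 48 h compound exposure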
[22] = HEK293T cytotoxicity, dose response, cytotoxicity control for miR-122 modulator project, cell-based, inhibitor set, cherry-pick, set 2 (AID 720697); format: functional
[23] = P. falciparum 3D7-ScDHODH growth inhibitors, dose response, SYBR Green, dry powder samples (AID 1159570); format: functional, cell-based;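 note: parasite growth measured after 72 hours of compound exposure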
[24] = P. falciparum Dd2 growth inhibitors, dose response, SYBR Green, cherry-picked samples (AID 1159567); format: functional, cell-based
[25] = HepG2 cell cytotoxicity, dose response, cytotoxicity control, cherry-picked samples (AID 1159577); format: functional, cell-based
[26] = HepG2 cell cytotoxicity, dose response, cytotoxicity control, plate reader, dry powder samples (AID 1159569); format: functional, cell-based;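 note: inhibitor potency with signal falling toward the positive control level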
[27] = P. falciparum Dd2 growth inhibitors, dose response, SYBR Green, dry powder samples (AID 1159566); format: functional, cell-based;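 note: potency for growth inhibition with lower SYBR green DNA signal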
[28] = P. falciparum ATP4 D1247Y mutant growth inhibitors, dose response, NITD609-resistant line, SYBR Green, dry powder (AID 1159571); format: functional, cell-based;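 note: parasites synchronized at ring stage by sorbitol before testing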
[29] = intracellular Trypanosoma cruzi inhibitors in host cells – cell-based, plate reader, cherry-pick samples, set 3, dose response (AID 651818); format: functional;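 note: compounds incubated with infected cells for about four days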
[30] = tested on: HEK293; assay: HEK293T cell cytotoxicity, dose response, cytotoxicity control, ATP luminescence, cherry-pick samples (AID 687005); format: functional, cell-based; conditions: Homo sapiens;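 note: cells exposed to compound for 48 hours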
[31] = HEK293 Cytotoxicity Assay Measured in Cell-Based System Using Plate Reader - 7071-01_Inhibitor_Dose_CherryPick_Activity_Set2.; format: functional
[32] = A2780 ovarian cancer cell cytotoxicity, dose response, cytotoxicity control, plate reader, dry powder samples (AID 743046); format: functional, cell-based
[33] = target: Paired box protein Pax-8 (Homo sapiens, UniProt Q06710); assay: inhibitors of PAX8-driven TPO luciferase reporter, dose response, RMG-I cells, cherry-pick (AID 687027); format: functional, cell-based;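 note: luciferase reporter driven by Pax8 target thyroperoxidase promoter measured by SteadyGlo luminescence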
[34] = cytotoxicity in OVCAR8 ovarian cancer cells, dose response, PAX8 project, cell-based, plate reader, dry powder samples (AID 743197); format: functional; conditions: OVCAR-8
[35] = IGROV1 ovarian cancer cell cytotoxicity, dose response, PAX8 inhibitor project, plate reader, dry powder samples (AID 743043); format: functional, cell-based; conditions: IGROV-1
[36] = NIH:OVCAR-3 ovarian cancer cell cytotoxicity, dose response, PAX8 inhibitor project, plate reader, dry powder samples (AID 743044); format: functional, cell-based
[37] = HEK293 cell cytotoxicity, dose response, cytotoxicity control, cherry-picks, set 5 (AID 1053117); format: functional, cell-based

Disintegrin and metalloproteinase domain-containing protein 17, sequence (P78536 whole entry, the tested form may be a part): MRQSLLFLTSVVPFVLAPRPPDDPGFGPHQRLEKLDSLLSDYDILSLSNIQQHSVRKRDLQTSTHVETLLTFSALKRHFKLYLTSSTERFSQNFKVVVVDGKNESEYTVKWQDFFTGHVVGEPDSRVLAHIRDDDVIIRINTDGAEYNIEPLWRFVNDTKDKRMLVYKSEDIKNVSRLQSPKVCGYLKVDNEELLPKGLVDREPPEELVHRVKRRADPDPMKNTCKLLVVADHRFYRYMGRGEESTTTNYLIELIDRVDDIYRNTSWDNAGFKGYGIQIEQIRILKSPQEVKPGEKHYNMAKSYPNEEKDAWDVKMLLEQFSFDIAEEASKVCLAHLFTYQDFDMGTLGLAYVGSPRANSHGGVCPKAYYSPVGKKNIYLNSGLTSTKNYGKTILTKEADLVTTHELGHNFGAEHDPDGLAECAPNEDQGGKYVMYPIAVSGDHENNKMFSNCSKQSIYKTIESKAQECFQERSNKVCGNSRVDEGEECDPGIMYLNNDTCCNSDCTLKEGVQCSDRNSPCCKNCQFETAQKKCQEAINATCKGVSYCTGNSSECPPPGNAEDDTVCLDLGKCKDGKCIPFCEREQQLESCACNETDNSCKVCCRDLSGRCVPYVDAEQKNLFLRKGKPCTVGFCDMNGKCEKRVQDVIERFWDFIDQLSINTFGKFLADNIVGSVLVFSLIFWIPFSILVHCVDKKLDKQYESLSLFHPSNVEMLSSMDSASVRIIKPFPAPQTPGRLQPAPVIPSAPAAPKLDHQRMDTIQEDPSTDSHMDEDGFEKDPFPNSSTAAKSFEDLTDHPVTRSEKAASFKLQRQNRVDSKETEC
Beta Lactamase, sequence (Q932Y6 whole entry): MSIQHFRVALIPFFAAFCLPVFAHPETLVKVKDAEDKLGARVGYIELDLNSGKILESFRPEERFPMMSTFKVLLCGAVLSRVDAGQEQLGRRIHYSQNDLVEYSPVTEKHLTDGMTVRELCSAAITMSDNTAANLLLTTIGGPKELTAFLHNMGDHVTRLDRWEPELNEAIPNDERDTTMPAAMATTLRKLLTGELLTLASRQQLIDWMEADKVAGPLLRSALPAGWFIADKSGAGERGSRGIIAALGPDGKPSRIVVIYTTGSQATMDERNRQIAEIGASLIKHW
Paired box protein Pax-8, sequence (Q06710 whole entry): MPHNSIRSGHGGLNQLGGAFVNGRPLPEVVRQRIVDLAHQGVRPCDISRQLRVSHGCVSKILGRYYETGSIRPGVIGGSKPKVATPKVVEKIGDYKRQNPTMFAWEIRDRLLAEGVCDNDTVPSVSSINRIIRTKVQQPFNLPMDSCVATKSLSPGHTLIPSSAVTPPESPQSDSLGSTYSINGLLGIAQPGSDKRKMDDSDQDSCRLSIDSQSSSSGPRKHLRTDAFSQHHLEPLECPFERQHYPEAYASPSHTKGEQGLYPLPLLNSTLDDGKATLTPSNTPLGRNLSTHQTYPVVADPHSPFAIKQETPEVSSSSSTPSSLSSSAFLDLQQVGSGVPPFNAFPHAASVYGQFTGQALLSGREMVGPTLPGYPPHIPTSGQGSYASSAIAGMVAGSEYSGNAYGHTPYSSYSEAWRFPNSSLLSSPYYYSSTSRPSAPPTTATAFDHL
Genome polyprotein, sequence (P29990 2492-3391 limits assumed): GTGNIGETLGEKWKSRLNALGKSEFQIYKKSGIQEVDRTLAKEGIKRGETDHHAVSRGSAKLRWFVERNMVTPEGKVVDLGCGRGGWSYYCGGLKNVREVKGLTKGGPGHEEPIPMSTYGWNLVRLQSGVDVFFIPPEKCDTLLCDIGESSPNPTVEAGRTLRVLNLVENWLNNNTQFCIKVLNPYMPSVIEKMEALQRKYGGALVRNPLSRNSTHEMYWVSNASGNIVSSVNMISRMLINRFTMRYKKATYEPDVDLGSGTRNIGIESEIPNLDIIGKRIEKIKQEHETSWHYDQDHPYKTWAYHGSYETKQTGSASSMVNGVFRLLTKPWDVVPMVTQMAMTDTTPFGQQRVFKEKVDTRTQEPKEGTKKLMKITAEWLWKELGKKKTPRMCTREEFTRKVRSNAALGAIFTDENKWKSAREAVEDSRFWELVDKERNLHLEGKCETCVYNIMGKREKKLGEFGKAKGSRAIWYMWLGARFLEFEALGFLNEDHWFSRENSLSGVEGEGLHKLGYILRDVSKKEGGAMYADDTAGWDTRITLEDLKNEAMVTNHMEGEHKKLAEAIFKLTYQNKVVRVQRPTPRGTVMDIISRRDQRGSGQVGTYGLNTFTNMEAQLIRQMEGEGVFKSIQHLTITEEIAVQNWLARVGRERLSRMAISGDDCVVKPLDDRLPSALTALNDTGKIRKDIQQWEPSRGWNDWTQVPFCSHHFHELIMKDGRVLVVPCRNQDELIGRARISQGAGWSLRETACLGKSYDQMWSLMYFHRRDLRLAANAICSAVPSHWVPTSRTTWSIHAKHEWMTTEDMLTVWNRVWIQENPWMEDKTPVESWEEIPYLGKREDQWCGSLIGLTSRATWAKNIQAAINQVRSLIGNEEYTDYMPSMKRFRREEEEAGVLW
Cytochrome P450 2C9, sequence (P11712 whole entry): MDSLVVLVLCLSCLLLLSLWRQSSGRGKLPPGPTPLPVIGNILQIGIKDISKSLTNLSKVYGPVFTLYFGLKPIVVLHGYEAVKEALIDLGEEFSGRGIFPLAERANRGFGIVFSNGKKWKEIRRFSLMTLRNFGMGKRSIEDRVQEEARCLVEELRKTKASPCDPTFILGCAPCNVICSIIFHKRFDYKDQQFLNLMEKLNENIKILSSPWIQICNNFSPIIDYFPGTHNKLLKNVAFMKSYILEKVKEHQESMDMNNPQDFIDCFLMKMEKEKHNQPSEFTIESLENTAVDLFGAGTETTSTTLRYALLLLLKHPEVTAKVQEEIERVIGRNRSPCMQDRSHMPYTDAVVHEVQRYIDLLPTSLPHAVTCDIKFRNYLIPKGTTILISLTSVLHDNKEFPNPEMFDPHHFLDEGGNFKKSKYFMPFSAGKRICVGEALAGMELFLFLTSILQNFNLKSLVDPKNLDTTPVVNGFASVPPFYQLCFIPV

CCn1nnnc1NCc1cccn1C
AC50 [1]: 31.1 µM (active)

C=C(C)COc1ccc(-c2[nH]nc(C)c2-c2ccc(OC)cc2)c(O)c1
IC50 [2]: > 69.6 µM (inactive)
IC50 [3]: 9.09 µM (active)
EC50 [4]: 17.7 µM (active)
AC50 [5]: 25.1 µM (inconclusive)
AC50 [6]: 3.41 µM (active)
EC50 [7]: 18 µM (active)

CCn1nnnc1NCc1ccc(N2CCCC2)cc1
AC50 [1]: > 70 µM (inactive)

COc1ccc2nc(NC(=O)c3ccco3)sc2c1
AC50 [8]: > 52 µM (inactive)
AC50 [9]: > 52 µM (inactive)
AC50 [10]: > 52 µM (inactive)
AC50 [11]: 6.48 µM (active)
AC50 [12]: 9.96 µM (active)

FC(F)(F)c1cccc(NC(S)=NCC2COc3ccccc3O2)c1 (stereo not drawn)
IC50 [2]: > 69.5 µM (inactive)
IC50 [3]: 16.8 µM (inactive)

O=C1C(Cl)=C(Oc2ccccc2)C(=O)c2ccccc21
AC50 [13]: 2.7 µM (active)
AC50 [14]: 0.598 µM (active)
IC50 [15]: 10.2 µM (inactive)
CC50 [16]: > 40 µM (active)
IC50 [17]: 4.47 µM (active)
IC50 [18]: 4.63 µM (active)
IC50 [19]: 0.738 µM (active)

CCN(CC(=O)Nc1ccccc1C(F)(F)F)C(=O)CCSc1ccc(F)cc1
AC50 [20]: 27 µM (active)

CCC(=O)N1[C@H](CO)[C@H](c2ccccc2)[C@H]1CN(C(C)C)S(C)(=O)=O
AC50 [21]: 35.4 µM (active)
AC50 [22]: 0.525 µM (active)

C[C@H](CO)N1C[C@H](C)[C@H](CN(C)Cc2ccc(C(F)(F)F)cc2)Oc2c(NC(=O)c3nc4ccccc4s3)cccc2C1=O
AC50 [23]: 3.74 µM (active)
AC50 [24]: 2.71 µM (active)
AC50 [25]: > 39 µM (inactive)
AC50 [26]: 46.2 µM (active)
AC50 [27]: 0.823 µM (active)
AC50 [28]: 1.69 µM (active)
AC50 [29]: 0.94 µM (active)

O=C(C[C@@H]1CC[C@@H]2[C@H](COC[C@H](O)CN2S(=O)(=O)c2ccc(Oc3ccccc3)cc2)O1)NC1CCC1
AC50 [30]: > 52 µM (inactive)
AC50 [31]: > 52 µM (inactive)

C[C@@H]1CCCCO[C@H](CN(C)C(=O)C2CCCCC2)[C@@H](C)CN([C@@H](C)CO)C(=O)c2cc(NC(=O)Nc3ccc(F)cc3)ccc2O1
AC50 [32]: 48.1 µM (active)
AC50 [33]: 4.07 µM (active)
AC50 [34]: 69.9 µM (active)
AC50 [35]: 63.4 µM (active)
AC50 [36]: 38.4 µM (active)

C[C@H]1CN([C@@H](C)CO)C(=O)c2cc(NS(=O)(=O)c3ccc(F)cc3)ccc2O[C@@H]1CN(C)S(=O)(=O)c1ccccc1
AC50 [30]: > 52 µM (inactive)
AC50 [31]: > 52 µM (inactive)

CCCNC(=O)N(C)C[C@H]1Oc2cc(C#CCC(C)C)ccc2S(=O)(=O)N([C@@H](C)CO)C[C@H]1C
AC50 [20]: 26.5 µM (active)

O=S(=O)(c1ccccc1F)N1CC[C@H]2[C@H](CO)Nc3ccc(-c4cccc(F)c4)cc3[C@H]21
AC50 [37]: 46.2 µM (active)

N#C[C@@H]1[C@@H](c2ccc(C3=CCCCC3)cc2)[C@H](CO)N1C(=O)NC1CCCC1
AC50 [23]: 3.06 µM (active)
AC50 [24]: 2.28 µM (active)
AC50 [26]: 35.6 µM (active)
AC50 [27]: 1.46 µM (active)
AC50 [28]: 2.61 µM (active)
